Test results from publication PMC8752738, “A propolis-derived small molecule ameliorates metabolic syndrome in obese mice by targeting the CREB/CRTC2 transcriptional complex” (Nature Communications, 2022).
“And” between values parts separate entries of the source, which are not always exact repeats. Identical values can stand only once.

Tested on: tissue mRNA levels
Test: Quantitative PCR of tissue gene expression in treated mice
Assay type: in vivo, mouse
Parameters: key to mRNA levels Scap / mRNA levels Insig1 / mRNA levels Ldlr / mRNA levels Mttp / mRNA levels Atgl / mRNA levels Tnfaip2 / mRNA levels Rxra / mRNA levels Srebf1 / mRNA levels Ucp2: mRNA level normalized to ribosomal L32 mRNA (internal control)
Description: Total RNA from cells and tissues was extracted by Trizol (Invitrogen) and reverse-transcribed into cDNA using the prime script RT reagent kit with gDNA eraser (Takara). The mRNA levels were determined using the SYBR-green PCR kit (Takara) with ABIPRISM 7900HT Sequence detector (ABI) according to the manufacturer’s protocol. The quantitative qPCR primers used in this work are listed in Supplementary Table 1. Ribosomal L32 mRNA levels were used as an internal control.

[1] = Figure 6c, liver of DIO mice, individual animals
[2] = Figure 6e, BAT genes in DIO, individual animals
[3] = Figure 6e, group mean of APC-treated mice
[4] = Figure 6f, CRTC2KO mice, oral APC
[5] = Figure 6f, CRTC2KO mice, oral APC, group mean, N 6

CC(C)=CCc1cc(C=CC(=O)O)cc(CC=C(C)C)c1O [APC, 3,5-diprenyl-4-hydroxycinnamic acid]
mRNA levels Insig2b [1]: 1.5012 and 1.204 and 1.275 and 1.326 and 1.226 and 1.358 | mRNA levels Ldlr [1]: 0.5776 and 0.5891 and 0.5493 and 0.4914 and 0.6354 and 0.4723 | mRNA levels Lipg [1]: 1.701 and 1.759 and 1.656 and 1.597 and 1.253 and 1.321 | mRNA levels Lxra [1]: 0.4169 and 0.5629 and 0.5095 and 0.7537 and 0.4614 and 0.533 | mRNA levels Mgll [1]: 1.478 and 2.215 and 1.692 and 2.155 and 1.663 and 2.019 | mRNA levels Mttp [1]: 0.5875 and 0.5564 and 0.479 and 0.4246 and 0.6126 and 0.6576 | mRNA levels Pcsk9 [1]: 0.8854 and 0.7972 and 0.6933 and 0.8757 and 0.803 and 0.7825 | mRNA levels Pgc-1a [1]: 0.841 and 0.8137 and 0.7443 and 0.6176 and 0.7797 and 0.5053 | mRNA levels Pgc-1b [1]: 0.6848 and 0.6024 and 0.8301 and 0.5369 and 0.6396 and 0.6129 | mRNA levels Scap [1]: 0.7134 and 0.6924 and 0.8986 and 0.7526 and 0.8965 and 0.6035 | mRNA levels Scd1 [1]: 1.593 and 1.385 and 1.755 and 1.2873 and 1.57 and 1.603 | relative mRNA levels Cpt1, Difference (Mean of VEH - Mean of APC) (Figure 6e): -0.4965 | relative mRNA levels Glut4, Difference (Mean of VEH - Mean of APC) (Figure 6e): -0.8396 | relative mRNA levels Hsl, Difference (Mean of VEH - Mean of APC) (Figure 6e): -0.512 | relative mRNA levels Mgl1, Difference (Mean of VEH - Mean of APC) (Figure 6e): -0.489 | relative mRNA levels Pgc-1α, Difference (Mean of VEH - Mean of APC) (Figure 6e): 0.4001 | relative mRNA levels Pgc-1β, Difference (Mean of VEH - Mean of APC) (Figure 6e): 0.2648 | relative mRNA levels Scd1, Difference (Mean of VEH - Mean of APC) (Figure 6e): 0.2529 | relative mRNA levels Ucp1, Difference (Mean of VEH - Mean of APC) (Figure 6e): 0.6029 | relative mRNA levels Ucp2, Difference (Mean of VEH - Mean of APC) (Figure 6e): -0.7752 | relative mRNA levels Ucp3, Difference (Mean of VEH - Mean of APC) (Figure 6e): -0.7811 | mRNA levels Rxrα, Mean of APC (Figure 6e, BAT genes in DIO, group mean, Mean of VEH 1.022): 0.997 | mRNA levels Pparγ, Mean of APC (Figure 6e, BAT genes in DIO, group mean, Mean of VEH 1.045): 1.136 | mRNA levels Pparα, Mean of APC (Figure 6e, BAT genes in DIO, group mean, Mean of VEH 1.047): 1.002 | mRNA levels Srebf-1c, Mean of APC (Figure 6e, BAT genes in DIO, group mean, Mean of VEH 1.079): 0.67 | mRNA levels Cpt1 [2]: 1.405 and 1.301 and 1.366 and 1.861 and 1.273 and 1.67 | mRNA levels Glut4 [2]: 2.222 and 2.223 and 2.091 and 1.366 and 1.861 and 1.914 | mRNA levels Hsl [2]: 1.929 and 1.285 and 1.044 and 1.492 and 1.691 and 1.784 | mRNA levels Mgl1 [2]: 1.571 and 1.671 and 1.448 and 1.19 and 1.394 and 1.429 | mRNA levels Pgc-1a [2]: 0.4882 and 0.6962 and 0.7342 and 0.6823 and 0.3242 and 0.5895 | mRNA levels Pgc-1b [2]: 0.7936 and 0.7877 and 0.8205 and 0.6233 and 0.5976 and 0.7915 | mRNA levels Ppara [2]: 0.957 and 1.069 and 1.282 and 0.4348 and 0.8215 and 1.448 | mRNA levels Pparg [2]: 1.223 and 1.057 and 1.279 and 0.9002 and 1.182 and 1.178 | mRNA levels Rxra [2]: 1.299 and 0.7585 and 0.6344 and 1.152 and 1.145 and 0.9935 | mRNA levels Scd1 [2]: 0.7542 and 0.5583 and 0.6317 and 0.6691 and 0.5321 and 0.7971 | mRNA levels Srebf1 [2]: 0.76 and 0.6196 and 0.6214 and 0.595 and 0.7194 and 0.7042 | mRNA levels Ucp1 [2]: 0.4272 and 0.4661 and 0.4353 and 0.3244 and 0.4398 and 0.6531 | mRNA levels Ucp2 [2]: 1.948 and 2.049 and 1.871 and 1.366 and 1.861 and 1.31 | mRNA levels Ucp3 [2]: 2.385 and 1.61 and 1.317 and 1.964 and 1.366 and 1.861 | relative mRNA levels Cpt1, Mean of APC [3]: 1.479 | relative mRNA levels Glut4, Mean of APC [3]: 1.946 | relative mRNA levels Hsl, Mean of APC [3]: 1.538 | relative mRNA levels Mgl1, Mean of APC [3]: 1.451 | relative mRNA levels Pgc-1α, Mean of APC [3]: 0.5858 | relative mRNA levels Pgc-1β, Mean of APC [3]: 0.7357 | relative mRNA levels Scd1, Mean of APC [3]: 0.6571 | relative mRNA levels Ucp1, Mean of APC [3]: 0.4576 | relative mRNA levels Ucp2, Mean of APC [3]: 1.734 | relative mRNA levels Ucp3, Mean of APC [3]: 1.751 | mRNA of Srebf-1c, Mean Diff. APC - VEH [4]: 0.1559 | mRNA of Srebf-2, Mean Diff. APC - VEH [4]: -0.03887 | mRNA of Srebf-1c, Mean 1 (APC) [5]: 0.6887 | mRNA of Srebf-2, Mean 1 (APC) [5]: 0.7827
